Reference: US20220169632A1, “METHODS AND MATERIALS FOR INCREASING OR MAINTAINING NICOTINAMIDE MONONUCLEOTIDE ADENYLYL TRANSFERASE-2 (NMNAT2) POLYPEPTIDE LEVELS” (University of Pittsburgh - Of the Commonwealth System of …, priority 2019, published 2022)

System: NMNAT2
Test: NMNAT2-Hibit nano-luciferase activity in stably transfected U87MG cells, various concentrations, 24 hours
Type: cell-based
Conditions: U87MG cells stably transfected with NMNAT2-Hibit luc plasmid
Protocol: Selected compounds were tested in vitro. U87MG cells were stably transfected with NMNAT2-Hibit luc plasmid. Cells were treated with a test compound at various concentrations for 24 hours. Cells were then collected and assayed for nano-luciferase activity.

Row | SMILES | E: compound efficacy for NMNAT2 activation (concentration giving >25% increase in NMNAT2 luciferase activity)
1 | CCCCN(CC)Cc1ccc(CNC(=O)CCCc2cn(Cc3cccc(F)c3)c3ccccc23)o1 [BC20212] | +++ (“+++” >25% increase in NMNAT2 luciferase activity at ≤1 μM.)
2 | CCCCN(CC)Cc1ccc(CNC(=O)[C@H]2C[C@@H]2c2cn(Cc3cc(C)ccc3C)c3ccccc23)o1 (racemic) [BC20353] | ++ (“++” >25% increase in NMNAT2 luciferase activity at >1 μM ≤25 μM.)
3 | Cc1c(C)n(Cc2ccccc2F)c2ccc(C(=O)NCc3cccnc3)cc12 [BC20108] | +++ (“+++” >25% increase in NMNAT2 luciferase activity at ≤1 μM.)
4 | CCCCN(CC)Cc1ccc(CNC(=O)c2ccc3c(c2)c(C)c(C)n3Cc2ccccc2C)o1 [BC20266] | ++ (“++” >25% increase in NMNAT2 luciferase activity at >1 μM ≤25 μM.)
5 | Cc1ccc(C)c(Cn2c3c(c4ccccc42)CC(C(=O)NCc2cccnc2)CC3)c1 (centres unmarked) [BC20189] | ++ (“++” >25% increase in NMNAT2 luciferase activity at >1 μM ≤25 μM.)
6 | Cc1ccccc1CNC(=O)CCCc1cn(Cc2cccc(F)c2)c2ccccc12 [BC20140] | + (“+” >25% increase in NMNAT2 luciferase activity at >25 μM.)
7 | Cc1ccccc1Cn1c(C)c(C)c2cc(C(=O)NCc3cccnc3)ccc21 [BC20208] | ++ (“++” >25% increase in NMNAT2 luciferase activity at >1 μM ≤25 μM.)
8 | O=C(c1ccco1)N1CCN(C(=O)C2CCc3c(c4ccccc4n3Cc3cccc(F)c3)C2)CC1 (centres unmarked) [BC20257] | + (“+” >25% increase in NMNAT2 luciferase activity at >25 μM.)
9 | Cc1cccc(CNC(=O)Cn2c3c(c4ccccc42)CC(C(=O)NCc2ccco2)CC3)c1 (centres unmarked) [BC20288] | ++ (“++” >25% increase in NMNAT2 luciferase activity at >1 μM ≤25 μM.)
10 | Cc1ccc(Cn2cc([C@H]3C[C@@H]3C(=O)NCc3ccccc3C)c3ccccc32)cc1 (racemic) [BC20296] | ++ (“++” >25% increase in NMNAT2 luciferase activity at >1 μM ≤25 μM.)
11 | Cc1cccc(NC(=O)C2CCc3c(c4ccccc4n3Cc3cccc(F)c3)C2)c1C (centres unmarked) [BC20229] | + (“+” >25% increase in NMNAT2 luciferase activity at >25 μM.)
12 | Cc1ccc(Cn2c3c(c4ccccc42)C(C(=O)NCc2cccnc2)CCC3)cc1 (centres unmarked) [BC20389] | ++ (“++” >25% increase in NMNAT2 luciferase activity at >1 μM ≤25 μM.)
13 | O=C(Cn1c2c(c3ccccc31)CC(C(=O)NCC1CCCO1)CC2)NCc1ccco1 (centres unmarked) [BC20237] | ++ (“++” >25% increase in NMNAT2 luciferase activity at >1 μM ≤25 μM.)
14 | Cc1ccccc1CNC(=O)C1CCc2c(c3ccccc3n2Cc2cccc(F)c2)C1 (centres unmarked) [BC20223] | + (“+” >25% increase in NMNAT2 luciferase activity at >25 μM.)
15 | Cc1c(C)n(Cc2ccccc2F)c2ccc(C(=O)NCCc3ccccc3)cc12 [BC20245] | ++ (“++” >25% increase in NMNAT2 luciferase activity at >1 μM ≤25 μM.)
16 | Cc1cccc(CNC(=O)CCc2c(C(F)F)n(Cc3cc(C)ccc3C)c3ccccc23)c1 [BC20396] | ++ (“++” >25% increase in NMNAT2 luciferase activity at >1 μM ≤25 μM.)
17 | Cc1ccc(C)c(Cn2c(C(F)F)c(CCC(=O)NCc3ccco3)c3ccccc32)c1 [BC20354] | + (“+” >25% increase in NMNAT2 luciferase activity at >25 μM.)
18 | Cc1ccc(Cn2cc(C3=CC(=O)NCC3)c3ccccc32)cc1 [BC20191] | ++ (“++” >25% increase in NMNAT2 luciferase activity at >1 μM ≤25 μM.)
19 | Cc1ccccc1CNC(=O)c1ccc2c(c1)c(C)c(C)n2Cc1cccc(F)c1 [BC20113] | ++ (“++” >25% increase in NMNAT2 luciferase activity at >1 μM ≤25 μM.)
20 | O=C(NCc1cccc(F)c1)C1CCc2c(c3ccccc3n2Cc2ccncc2)C1 (centres unmarked) [BC20316] | + (“+” >25% increase in NMNAT2 luciferase activity at >25 μM.)
21 | Cc1ccc(C)c(Cn2cc3c4c(cccc42)C(=O)N(CCOc2ccccc2)CC3)c1 [BC20343] | + (“+” >25% increase in NMNAT2 luciferase activity at >25 μM.)
22 | O=C(C1CCc2c(c3ccccc3n2Cc2cccc(F)c2)C1)N1CCc2occc2C1 (centres unmarked) [BC20260] | ++ (“++” >25% increase in NMNAT2 luciferase activity at >1 μM ≤25 μM.)
23 | O=C(CCCc1cn(Cc2cccc(F)c2)c2ccccc12)NCc1cccc(F)c1 [BC20139] | ++ (“++” >25% increase in NMNAT2 luciferase activity at >1 μM ≤25 μM.)
24 | Cc1ccc(CNC(=O)Cn2cc(C(=O)c3ccc(Cl)cc3)c3ccccc32)o1 [BC20176] | ++ (“++” >25% increase in NMNAT2 luciferase activity at >1 μM ≤25 μM.)

Row | SMILES | E: compound efficacy for NMNAT2 activation (concentration giving >25% increase in NMNAT2 luciferase activity)
25 | O=C(NCc1ccco1)N1CCc2c(c3ccccc3n2Cc2ccncc2)C1 [BC20357] | ++ (“++” >25% increase in NMNAT2 luciferase activity at >1 μM ≤25 μM.)
26 | Cc1ccccc1Cn1c(C)c(C)c2cc(C(=O)O)ccc21 [BC20306] | + (“+” >25% increase in NMNAT2 luciferase activity at >25 μM.)
27 | Cc1ccc(CNC(=O)C2CCc3c(c4ccccc4n3Cc3ccncc3)C2)o1 (centres unmarked) [BC20279] | + (“+” >25% increase in NMNAT2 luciferase activity at >25 μM.)
28 | COc1cccc(CNC(=O)CCCc2cn(Cc3cccc(C)c3)c3ccccc23)c1 [BC20169] | ++ (“++” >25% increase in NMNAT2 luciferase activity at >1 μM ≤25 μM.)
29 | O=C(Cn1cc(C(=O)c2ccc(Cl)cc2)c2ccccc21)NCCc1ccccc1 [BC20215] | ++ (“++” >25% increase in NMNAT2 luciferase activity at >1 μM ≤25 μM.)
30 | Cc1ccccc1Cn1cc(CCCC(=O)NCc2ccccc2F)c2ccccc21 [BC20151] | ++ (“++” >25% increase in NMNAT2 luciferase activity at >1 μM ≤25 μM.)
31 | Cc1cccc(CNC(=O)c2ccc3c(c2)c(C)c(C)n3Cc2ccccc2F)c1 [BC20195] | + (“+” >25% increase in NMNAT2 luciferase activity at >25 μM.)
32 | Cc1ccc(C)c(Cn2c3c(c4ccccc42)CC(C(=O)NCc2ccco2)CC3)c1 (centres unmarked) [BC20102] | ++ (“++” >25% increase in NMNAT2 luciferase activity at >1 μM ≤25 μM.)
33 | Cc1cccc(CNC(=O)C2CCCc3c2c2ccccc2n3Cc2cccc(F)c2)c1 (centres unmarked) [BC20373] | + (“+” >25% increase in NMNAT2 luciferase activity at >25 μM.)
34 | Cc1ccc(CNC(=O)c2ccc3c(c2)c(C)c(C)n3Cc2ccccc2F)o1 [BC20193] | + (“+” >25% increase in NMNAT2 luciferase activity at >25 μM.)
35 | O=C(Cn1c2c(c3ccccc31)CN(C(=O)NCC1CCCO1)CC2)NCc1ccco1 (centres unmarked) [BC20328] | + (“+” >25% increase in NMNAT2 luciferase activity at >25 μM.)
36 | O=C(Cn1c2c(c3ccccc31)CC(C(=O)NCc1ccco1)CC2)NCc1cccnc1 (centres unmarked) [BC20292] | ++ (“++” >25% increase in NMNAT2 luciferase activity at >1 μM ≤25 μM.)
37 | Cc1cccc(NC(=O)CCCc2cn(Cc3cccc(F)c3)c3ccccc23)c1C [BC20149] | ++ (“++” >25% increase in NMNAT2 luciferase activity at >1 μM ≤25 μM.)
38 | Cc1ccc(Cn2cc(C3CCN(Cc4cccc(F)c4)C(=O)C3)c3ccccc32)cc1 (centres unmarked) [BC20231] | ++ (“++” >25% increase in NMNAT2 luciferase activity at >1 μM ≤25 μM.)
39 | Cc1ccc(Cn2c3c(c4ccccc42)C(C(=O)NCCc2ccccc2)CCC3)cc1 (centres unmarked) [BC20388] | + (“+” >25% increase in NMNAT2 luciferase activity at >25 μM.)
40 | O=C(CCCc1cn(Cc2cccc(F)c2)c2ccccc12)NCc1cccnc1 [BC20147] | ++ (“++” >25% increase in NMNAT2 luciferase activity at >1 μM ≤25 μM.)
41 | Fc1cccc(Cn2c3c(c4ccccc42)CNCC3)c1 [BC20333] | ++ (“++” >25% increase in NMNAT2 luciferase activity at >1 μM ≤25 μM.)
42 | O=C1c2cccc3c2c(cn3Cc2cccc(F)c2)CCN1Cc1cccc(F)c1 [BC20275] | + (“+” >25% increase in NMNAT2 luciferase activity at >25 μM.)
43 | O=C(NCc1cccnc1)C1CCCc2c1c1ccccc1n2Cc1cccc(F)c1 (centres unmarked) [BC20379] | ++ (“++” >25% increase in NMNAT2 luciferase activity at >1 μM ≤25 μM.)
44 | Cc1ccc(Cn2cc([C@H]3C[C@@H]3C(=O)NCc3ccco3)c3ccccc32)cc1 (racemic) [BC20293] | ++ (“++” >25% increase in NMNAT2 luciferase activity at >1 μM ≤25 μM.)
45 | Cc1ccc(CNC(=O)c2ccc3c(c2)c(C)c(C)n3Cc2cccc(F)c2)o1 [BC20109] | ++ (“++” >25% increase in NMNAT2 luciferase activity at >1 μM ≤25 μM.)
46 | Cc1ccc(C)c(Cn2c3c(c4ccccc42)CC(C(=O)NCc2ccccc2F)CC3)c1 (centres unmarked) [BC20217] | + (“+” >25% increase in NMNAT2 luciferase activity at >25 μM.)
47 | COc1ccccc1CNC(=O)CCCc1cn(Cc2cccc(F)c2)c2ccccc12 [BC20142] | ++ (“++” >25% increase in NMNAT2 luciferase activity at >1 μM ≤25 μM.)
